Common to all, as to type: cell-based
One test deals with T1, human TLR7 (Homo sapiens, UniProt Q9NYK1).
T1 construct: host or cells: HEK-Blue cells (HEK293-derived reporter line)
T1 sequence (Q9NYK1 27-1049): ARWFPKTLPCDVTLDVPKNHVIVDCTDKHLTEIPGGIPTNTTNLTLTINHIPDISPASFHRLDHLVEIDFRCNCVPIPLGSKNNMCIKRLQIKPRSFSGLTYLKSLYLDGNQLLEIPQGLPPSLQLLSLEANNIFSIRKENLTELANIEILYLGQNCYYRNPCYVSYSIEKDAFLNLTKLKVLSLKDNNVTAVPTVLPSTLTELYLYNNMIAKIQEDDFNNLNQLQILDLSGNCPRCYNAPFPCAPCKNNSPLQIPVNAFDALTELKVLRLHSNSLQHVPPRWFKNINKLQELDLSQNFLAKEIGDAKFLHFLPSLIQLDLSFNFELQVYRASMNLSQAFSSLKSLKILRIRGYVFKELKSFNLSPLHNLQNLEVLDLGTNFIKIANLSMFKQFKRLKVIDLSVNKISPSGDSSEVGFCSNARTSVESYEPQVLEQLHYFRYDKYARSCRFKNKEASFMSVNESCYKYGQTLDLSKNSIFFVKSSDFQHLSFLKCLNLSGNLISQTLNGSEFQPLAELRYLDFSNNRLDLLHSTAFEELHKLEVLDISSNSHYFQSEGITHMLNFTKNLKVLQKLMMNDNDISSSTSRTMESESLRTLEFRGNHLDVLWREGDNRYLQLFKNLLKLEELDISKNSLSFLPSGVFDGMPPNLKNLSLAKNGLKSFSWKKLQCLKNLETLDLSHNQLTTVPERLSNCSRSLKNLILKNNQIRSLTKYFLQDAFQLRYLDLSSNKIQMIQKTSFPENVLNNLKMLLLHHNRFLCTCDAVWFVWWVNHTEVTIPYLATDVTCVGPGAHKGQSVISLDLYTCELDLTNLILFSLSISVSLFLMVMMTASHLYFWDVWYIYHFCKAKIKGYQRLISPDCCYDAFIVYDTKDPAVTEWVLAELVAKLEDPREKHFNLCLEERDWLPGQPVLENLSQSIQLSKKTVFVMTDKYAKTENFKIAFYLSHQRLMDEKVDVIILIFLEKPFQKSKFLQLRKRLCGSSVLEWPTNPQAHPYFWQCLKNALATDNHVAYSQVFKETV
Briefly: TLR7 inhibition reporter assay (HEK-Blue cells, secreted embryonic alkaline phosphatase reporter). The following applies: HEK-Blue cells overexpressing human TLR7, stimulated with gardiquimod 7.5 μM; read-out: TLR 7 IC50. The method in brief: (§1)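 Steps: seed receptor-specific HEK-Blue cells; add compound, 0.05 nM–50 μM; wait 30 min at room temperature; add final gardiquimod 7.5 μM, R848 15.9 μM or ODN2006 5 nM for TLR7, TLR8 or TLR9; incubate 22 h at 37 °C; detect NF-κB/AP-1-driven SEAP.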
(Reporter assays use an easily measured gene product as a stand-in for the process of interest.)

For another test, the target named is T2, human TLR8 (Homo sapiens, UniProt Q9NR97).
T2 construct: host or cells: HEK-Blue cells (HEK293-derived reporter line)
T2 sequence (Q9NR97 27-1041): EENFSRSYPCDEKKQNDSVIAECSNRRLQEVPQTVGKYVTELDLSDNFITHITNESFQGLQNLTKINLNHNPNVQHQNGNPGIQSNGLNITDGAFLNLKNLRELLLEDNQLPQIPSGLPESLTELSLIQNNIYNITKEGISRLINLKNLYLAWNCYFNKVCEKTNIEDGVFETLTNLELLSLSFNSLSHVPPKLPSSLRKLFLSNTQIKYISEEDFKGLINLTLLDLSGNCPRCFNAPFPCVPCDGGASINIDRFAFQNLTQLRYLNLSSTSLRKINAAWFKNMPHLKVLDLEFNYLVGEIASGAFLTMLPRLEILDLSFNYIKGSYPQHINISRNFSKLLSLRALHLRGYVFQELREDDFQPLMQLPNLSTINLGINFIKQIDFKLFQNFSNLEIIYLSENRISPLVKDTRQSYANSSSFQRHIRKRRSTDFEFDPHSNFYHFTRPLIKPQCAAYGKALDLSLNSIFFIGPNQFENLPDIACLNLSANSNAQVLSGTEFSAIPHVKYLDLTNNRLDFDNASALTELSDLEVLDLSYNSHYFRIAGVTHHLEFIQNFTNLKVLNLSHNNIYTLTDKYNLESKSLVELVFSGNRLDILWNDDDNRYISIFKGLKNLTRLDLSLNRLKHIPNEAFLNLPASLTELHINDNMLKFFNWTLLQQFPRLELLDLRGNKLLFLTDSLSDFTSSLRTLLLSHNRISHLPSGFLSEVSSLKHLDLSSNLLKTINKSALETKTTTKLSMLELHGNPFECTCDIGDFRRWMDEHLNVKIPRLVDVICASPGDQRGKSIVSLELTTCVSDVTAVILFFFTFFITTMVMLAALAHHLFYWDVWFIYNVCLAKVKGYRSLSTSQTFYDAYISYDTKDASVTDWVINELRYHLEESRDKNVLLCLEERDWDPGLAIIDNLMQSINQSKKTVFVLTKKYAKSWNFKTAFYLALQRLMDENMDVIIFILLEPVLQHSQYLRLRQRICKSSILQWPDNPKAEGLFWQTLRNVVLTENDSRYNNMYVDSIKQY
Put plainly: TLR8 inhibition reporter assay (HEK-Blue cells, secreted embryonic alkaline phosphatase reporter). The following applies: HEK-Blue cells overexpressing human TLR8, stimulated with R848 15.9 μM; read-out: TLR 8 IC50. The method in brief:
as §1

A further test addresses T3, human TLR9 (Homo sapiens, UniProt Q9NR96).
T3 construct: host or cells: HEK-Blue cells (HEK293-derived reporter line)
T3 sequence (Q9NR96 26-1032): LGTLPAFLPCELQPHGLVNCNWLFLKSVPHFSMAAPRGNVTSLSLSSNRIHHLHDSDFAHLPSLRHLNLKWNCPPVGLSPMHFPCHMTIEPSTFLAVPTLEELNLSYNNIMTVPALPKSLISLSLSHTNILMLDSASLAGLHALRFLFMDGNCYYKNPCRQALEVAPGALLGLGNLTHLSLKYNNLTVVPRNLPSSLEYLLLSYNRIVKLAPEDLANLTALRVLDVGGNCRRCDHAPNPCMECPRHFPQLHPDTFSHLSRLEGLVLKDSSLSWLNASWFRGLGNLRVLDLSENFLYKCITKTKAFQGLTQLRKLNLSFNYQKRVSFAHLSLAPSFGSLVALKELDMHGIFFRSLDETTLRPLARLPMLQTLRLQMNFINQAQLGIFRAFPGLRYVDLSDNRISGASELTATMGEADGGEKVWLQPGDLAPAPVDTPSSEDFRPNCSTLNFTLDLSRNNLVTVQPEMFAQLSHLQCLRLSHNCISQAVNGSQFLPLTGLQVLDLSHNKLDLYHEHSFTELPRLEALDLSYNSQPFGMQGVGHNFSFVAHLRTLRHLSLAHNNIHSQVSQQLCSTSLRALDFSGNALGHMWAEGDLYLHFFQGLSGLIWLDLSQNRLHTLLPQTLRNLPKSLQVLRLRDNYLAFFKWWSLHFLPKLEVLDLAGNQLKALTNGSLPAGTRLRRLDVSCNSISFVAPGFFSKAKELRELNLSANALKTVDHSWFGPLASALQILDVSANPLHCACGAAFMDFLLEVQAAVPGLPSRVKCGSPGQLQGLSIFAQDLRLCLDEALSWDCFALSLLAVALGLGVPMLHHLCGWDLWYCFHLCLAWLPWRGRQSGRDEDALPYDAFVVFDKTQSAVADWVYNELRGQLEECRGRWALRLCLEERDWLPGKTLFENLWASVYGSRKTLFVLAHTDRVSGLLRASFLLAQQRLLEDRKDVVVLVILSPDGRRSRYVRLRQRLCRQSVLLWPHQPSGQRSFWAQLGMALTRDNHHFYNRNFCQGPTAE
Put plainly: TLR9 inhibition reporter assay (HEK-Blue cells, secreted embryonic alkaline phosphatase reporter). The method in brief: as §1

[1] abbreviates: HEK-Blue cells overexpressing human TLR9, stimulated with ODN2006 5 nM, 22 hour incubation, reporter readout.
[2] abbreviates: HEK-Blue cells overexpressing human TLR9, stimulated with ODN2006 5 nM, read-out: TLR 9 IC50.

Drawing on US12492188B2, “1H-benzo[D]imidazole derivatives as TLR9 inhibitors for the treatment of fibrosis” (BRISTOL-MYERS SQUIBB COMPANY, priority 2020, dated 2025), this text covers IC50 for nine molecules.

Each structure is given as a SMILES string. Where two headings read alike, the source gives them in different places.

For `Cc1cc(C2CCN(C3CCCN(C4CCC4)CC3)CC2)cc2c1nc(-c1ccc(S(C)(=O)=O)cc1)n2C` (single isomer, unassigned) [Example 111, 6-(1-(1-cyclobutylazepan-4-yl)piperidin-4-yl)-1,4-dimethyl-2-(4-(methylsulfonyl)phenyl)-1H-benzo[d]imidazole], the half-maximal inhibitory concentration (IC50) – broadly, the concentration that inhibits the measured activity by half – was 1500 nM on human TLR7, above 50000 nM on human TLR8 and 24 nM against human TLR9 (setting [1]).

As for `CC(C)N1CCCC(N2CCC(c3ccc4nc(-c5ccc(S(C)(=O)=O)cc5)n(C)c4c3F)CC2)CC1` (single isomer, unassigned) [Example 113, 7-fluoro-6-(1-(1-isopropylazepan-4-yl)piperidin-4-yl)-1-methyl-2-(4-(methylsulfonyl)phenyl)-1H-benzo[d]imidazole], the half-inhibitory concentration (IC50) on human TLR7 was above 50000 nM; at human TLR8 it was above 50000 nM; on human TLR9 (setting [1]), 32 nM.

As for `CC(C)N1CCCC(N2CCC(c3ccc4nc(-c5ccc(S(C)(=O)=O)cc5)n(C)c4c3F)CC2)CC1` (single isomer, unassigned) [Example 114, 7-fluoro-6-(1-(1-isopropylazepan-4-yl)piperidin-4-yl)-1-methyl-2-(4-(methylsulfonyl)phenyl)-1H-benzo[d]imidazole], the half-inhibitory concentration (IC50) on human TLR7 is above 50000 nM; at human TLR8, 16700 nM; against human TLR9 (setting [1]), 13 nM.

With `CC(C)N1C2CCC1CC(N1CCC(c3cc(F)c4nc(-c5ccc(S(C)(=O)=O)cc5)n(C5CC5)c4c3)CC1)C2` (single isomer, unassigned) [Example 116, 1-cyclopropyl-4-fluoro-6-(1-(8-isopropyl-8-azabicyclo[3.2.1]octan-3-yl)piperidin-4-yl)-2-(4-(methylsulfonyl)phenyl)-1H-benzo[d]imidazole], the figures for the IC50 on human TLR7, at human TLR8 and on human TLR9 (setting [1]) were 3500 nM, above 50000 nM and 51 nM, respectively.

For the molecule `CC(C)N1C2CCC1CC(N1CCC(c3cc(F)c4nc(-c5ccc(S(C)(=O)=O)cc5)n(C5CC5)c4c3)CC1)C2` (single isomer, unassigned) [Example 117, 1-cyclopropyl-4-fluoro-6-(1-(8-isopropyl-8-azabicyclo[3.2.1]octan-3-yl)piperidin-4-yl)-2-(4-(methylsulfonyl)phenyl)-1H-benzo[d]imidazole], the IC50 was 2200 nM on human TLR7, above 50000 nM on human TLR8 and 71 nM against human TLR9 (setting [1]).

As to `Cc1cc(C2CCN(C3CC4CCC(C3)N4C3CCC3)CC2)cc2c1nc(-c1ccc(S(C)(=O)=O)c(F)c1)n2C` (single isomer, unassigned) [Example 124, 6-(1-(8-cyclobutyl-8-azabicyclo[3.2.1]octan-3-yl)piperidin-4-yl)-2-(3-fluoro-4-(methylsulfonyl)phenyl)-1,4-dimethyl-1H-benzo[d]imidazole], the IC50 is 3100 nM on human TLR7, above 50000 nM on human TLR8, 580 nM at human TLR9 (setting [1]) and 577 nM on human TLR9 (setting [2]).

Consider `Cc1cc(C2CCN(C3CC4CCC(C3)N4C3CCC3)CC2)cc2c1nc(-c1ccc(S(C)(=O)=O)cc1)n2C` (single isomer, unassigned) [Example 152, 6-(1-(8-cyclobutyl-8-azabicyclo[3.2.1]octan-3-yl)piperidin-4-yl)-1,4-dimethyl-2-(4-(methylsulfonyl)phenyl)-1H-benzo[d]imidazole], for which the 50% inhibitory concentration (IC50) on human TLR7 is 14700 nM; at human TLR8 it was above 25000 nM; against human TLR9, 84 nM; at human TLR9 (setting [2]), 84 nM.

For the molecule `Cc1cc(C2CCN(C3CC4CCC(C3)N4C3CCC3)CC2)cc2c1nc(-c1ccc(S(C)(=O)=O)cc1)n2C` (single isomer, unassigned) [Example 153, 6-(1-(8-cyclobutyl-8-azabicyclo[3.2.1]octan-3-yl)piperidin-4-yl)-1,4-dimethyl-2-(4-(methylsulfonyl)phenyl)-1H-benzo[d]imidazole], the half-inhibitory concentration (IC50) is 14300 nM on human TLR7, above 25000 nM at human TLR8, 120 nM at human TLR9 and 12.3 nM on human TLR9 (setting [2]).

`Cc1cc(C2CCN(C3CC4CCC(C3)N4CC3CC3)CC2)cc2c1nc(-c1ccc(S(C)(=O)=O)cc1)n2C` (single isomer, unassigned) [Example 154, 6-(1-(8-(cyclopropylmethyl)-8-azabicyclo[3.2.1]octan-3-yl)piperidin-4-yl)-1,4-dimethyl-2-(4-(methylsulfonyl)phenyl)-1H-benzo[d]imidazole]: the IC50 was 9000 nM at human TLR7, above 25000 nM at human TLR8, 30 nM at human TLR9 and 30 nM on human TLR9 (setting [2]).
